# Key:
# [1] = target: T1, Peroxidase (Armoracia rusticana, UniProt P00433); assay: Peroxidase activity; type: biochemical, horseradish; conditions: AzRu 20 μM; mean ± SEM
# T1 construct: purchased Sigma
# Description: (§1) Unlabelled ryanodine was obtained from Calbiochem. […] Ruthenium chloride was purchased from Aldrich.
# [2] = test system: CaMKII-dependent GAPDH; assay: CaMKII-dependent GAPDH activity; type: biochemical; conditions: AzRu 20 μM; mean ± SEM
# [3] = test system: Succinate-cytochrome c oxido-reductase; assay: Electron transport from succinate to cytochrome c in mitochondria; type: biochemical, rat
# Procedure: (§2) Sarcoplasmic reticulum (SR) membranes were prepared from rabbit fast twitch skeletal muscle as described by Saito [Saito et al.: J. Cell Biol. 99 (1984) 875-85]. Mitochondria were isolated from rat liver as described by us previously [Gincel D. et al.: Biochem J. 358 (2001) 147-55]. VDAC was purified by a method developed in our laboratory, using columns of hydroxyapatite and reactive red agarose [Gincel D. et al.: J. Bioenerget. Biomembr. 32 (2000) 571-83].
# (§3) Ca^2+-accumulation in freshly prepared mitochondria (0.5 mg/ml) was assayed for 1 to 20 minutes at 30° C. in the presence of 225 mM mannitol, 75 mM sucrose, 120 μM CaCl2 (containing 3×10^4 cpm/nmol ^45Ca^2+), 5 mM HEPES/KOH pH 7.0, and 5 mM succinate with 0.1 mM Pi, or 4 mM MgCl2 with 3 mM ATP. The Ca^2+-uptake was terminated by rapid Millipore filtration, followed by a wash with 5 ml of 0.15 M KCl. The Ca^2+-accumulation in SR was determined as described previously [Shoshan-Barmatz V. & Shaineberg A.: Biochim. Biophys. Acta 1065 (1991) 82-8]. Electron transport from succinate to cytochrome c was described in above cited article [Gincel D. et al.: J. Bioenerget. Biomembr. 32 (2000) 571-83].
# The effect of AzRu on mitochondrial process of electron transport from the donor succinate to the acceptor cytochrome c was characterized as described above. […]
# [4] = test system: mitochondrial uniporter (Ca2+ uptake in mitochondria); assay: Ca2+ uptake/accumulation in isolated mitochondria; type: biochemical, rat
# Procedure: as §2, §3
# The effect of AzRu on mitochondrial process of electron transport from the donor succinate to the acceptor cytochrome c was characterized as described above. Although said electron transfer involves several dozens electron transfer carriers, this reaction was not affected by azido-ruthenium of this invention.
# (§4) The hexavalent RuR and the trivalent Ru360 have been employed in various studies as inhibitors of Ca^2+-dependent reactions. As shown here, even with no photoactivation, AzRu, in contrast to RuR and Ru360, was effective in inhibiting the SR Ca^2+-pump (Table 3). […] This may open the way to inhibit other Ca^2+-dependent activities that are not sensitive to RuR, such as the plasma membrane Ca^2+-ATPase. […] RuR was employed to improve mitochondrial production in ischemic reperfused pig myocardium, was employed in the nervous system to follow neuronal death progress and can act as an anti-oxidant in certain conditions. Considering the potent activity of AzRu in RuR-insensitive reactions (see Table 3), its applications in various biological studies should be explored. Ca^2+ accumulation in SR and mitochondria was assayed as described above in the absence and presence of different concentrations of RuR (0.05-100 μM), Ru360 (0.01-100 μM) or AzRu (0.1-100 μM). The concentration required for 50% inhibition (IC50) was derived from the plot of Ca^2+ accumulation activity or ryanodine binding as a function of the reagent concentration. The results are the mean±SEM of 3 to 5 experiments (Table 3).
# [5] = target: T2, Pyruvate kinase (Oryctolagus cuniculus, UniProt P11974); assay: Pyruvate kinase activity; type: biochemical; conditions: mean ± SEM
# T2 construct: purchased Sigma
# Description: as §1
# [6] = target: T3, ryanodine receptor (RyR) / Ca2+-release channel (Oryctolagus cuniculus, UniProt P11716); assay: [3H]ryanodine binding to SR membranes; set-up: species or system rabbit
# T3 construct: from tissue; host or cells: rabbit fast twitch skeletal muscle SR membranes
# T3 sequence (P11716 whole entry): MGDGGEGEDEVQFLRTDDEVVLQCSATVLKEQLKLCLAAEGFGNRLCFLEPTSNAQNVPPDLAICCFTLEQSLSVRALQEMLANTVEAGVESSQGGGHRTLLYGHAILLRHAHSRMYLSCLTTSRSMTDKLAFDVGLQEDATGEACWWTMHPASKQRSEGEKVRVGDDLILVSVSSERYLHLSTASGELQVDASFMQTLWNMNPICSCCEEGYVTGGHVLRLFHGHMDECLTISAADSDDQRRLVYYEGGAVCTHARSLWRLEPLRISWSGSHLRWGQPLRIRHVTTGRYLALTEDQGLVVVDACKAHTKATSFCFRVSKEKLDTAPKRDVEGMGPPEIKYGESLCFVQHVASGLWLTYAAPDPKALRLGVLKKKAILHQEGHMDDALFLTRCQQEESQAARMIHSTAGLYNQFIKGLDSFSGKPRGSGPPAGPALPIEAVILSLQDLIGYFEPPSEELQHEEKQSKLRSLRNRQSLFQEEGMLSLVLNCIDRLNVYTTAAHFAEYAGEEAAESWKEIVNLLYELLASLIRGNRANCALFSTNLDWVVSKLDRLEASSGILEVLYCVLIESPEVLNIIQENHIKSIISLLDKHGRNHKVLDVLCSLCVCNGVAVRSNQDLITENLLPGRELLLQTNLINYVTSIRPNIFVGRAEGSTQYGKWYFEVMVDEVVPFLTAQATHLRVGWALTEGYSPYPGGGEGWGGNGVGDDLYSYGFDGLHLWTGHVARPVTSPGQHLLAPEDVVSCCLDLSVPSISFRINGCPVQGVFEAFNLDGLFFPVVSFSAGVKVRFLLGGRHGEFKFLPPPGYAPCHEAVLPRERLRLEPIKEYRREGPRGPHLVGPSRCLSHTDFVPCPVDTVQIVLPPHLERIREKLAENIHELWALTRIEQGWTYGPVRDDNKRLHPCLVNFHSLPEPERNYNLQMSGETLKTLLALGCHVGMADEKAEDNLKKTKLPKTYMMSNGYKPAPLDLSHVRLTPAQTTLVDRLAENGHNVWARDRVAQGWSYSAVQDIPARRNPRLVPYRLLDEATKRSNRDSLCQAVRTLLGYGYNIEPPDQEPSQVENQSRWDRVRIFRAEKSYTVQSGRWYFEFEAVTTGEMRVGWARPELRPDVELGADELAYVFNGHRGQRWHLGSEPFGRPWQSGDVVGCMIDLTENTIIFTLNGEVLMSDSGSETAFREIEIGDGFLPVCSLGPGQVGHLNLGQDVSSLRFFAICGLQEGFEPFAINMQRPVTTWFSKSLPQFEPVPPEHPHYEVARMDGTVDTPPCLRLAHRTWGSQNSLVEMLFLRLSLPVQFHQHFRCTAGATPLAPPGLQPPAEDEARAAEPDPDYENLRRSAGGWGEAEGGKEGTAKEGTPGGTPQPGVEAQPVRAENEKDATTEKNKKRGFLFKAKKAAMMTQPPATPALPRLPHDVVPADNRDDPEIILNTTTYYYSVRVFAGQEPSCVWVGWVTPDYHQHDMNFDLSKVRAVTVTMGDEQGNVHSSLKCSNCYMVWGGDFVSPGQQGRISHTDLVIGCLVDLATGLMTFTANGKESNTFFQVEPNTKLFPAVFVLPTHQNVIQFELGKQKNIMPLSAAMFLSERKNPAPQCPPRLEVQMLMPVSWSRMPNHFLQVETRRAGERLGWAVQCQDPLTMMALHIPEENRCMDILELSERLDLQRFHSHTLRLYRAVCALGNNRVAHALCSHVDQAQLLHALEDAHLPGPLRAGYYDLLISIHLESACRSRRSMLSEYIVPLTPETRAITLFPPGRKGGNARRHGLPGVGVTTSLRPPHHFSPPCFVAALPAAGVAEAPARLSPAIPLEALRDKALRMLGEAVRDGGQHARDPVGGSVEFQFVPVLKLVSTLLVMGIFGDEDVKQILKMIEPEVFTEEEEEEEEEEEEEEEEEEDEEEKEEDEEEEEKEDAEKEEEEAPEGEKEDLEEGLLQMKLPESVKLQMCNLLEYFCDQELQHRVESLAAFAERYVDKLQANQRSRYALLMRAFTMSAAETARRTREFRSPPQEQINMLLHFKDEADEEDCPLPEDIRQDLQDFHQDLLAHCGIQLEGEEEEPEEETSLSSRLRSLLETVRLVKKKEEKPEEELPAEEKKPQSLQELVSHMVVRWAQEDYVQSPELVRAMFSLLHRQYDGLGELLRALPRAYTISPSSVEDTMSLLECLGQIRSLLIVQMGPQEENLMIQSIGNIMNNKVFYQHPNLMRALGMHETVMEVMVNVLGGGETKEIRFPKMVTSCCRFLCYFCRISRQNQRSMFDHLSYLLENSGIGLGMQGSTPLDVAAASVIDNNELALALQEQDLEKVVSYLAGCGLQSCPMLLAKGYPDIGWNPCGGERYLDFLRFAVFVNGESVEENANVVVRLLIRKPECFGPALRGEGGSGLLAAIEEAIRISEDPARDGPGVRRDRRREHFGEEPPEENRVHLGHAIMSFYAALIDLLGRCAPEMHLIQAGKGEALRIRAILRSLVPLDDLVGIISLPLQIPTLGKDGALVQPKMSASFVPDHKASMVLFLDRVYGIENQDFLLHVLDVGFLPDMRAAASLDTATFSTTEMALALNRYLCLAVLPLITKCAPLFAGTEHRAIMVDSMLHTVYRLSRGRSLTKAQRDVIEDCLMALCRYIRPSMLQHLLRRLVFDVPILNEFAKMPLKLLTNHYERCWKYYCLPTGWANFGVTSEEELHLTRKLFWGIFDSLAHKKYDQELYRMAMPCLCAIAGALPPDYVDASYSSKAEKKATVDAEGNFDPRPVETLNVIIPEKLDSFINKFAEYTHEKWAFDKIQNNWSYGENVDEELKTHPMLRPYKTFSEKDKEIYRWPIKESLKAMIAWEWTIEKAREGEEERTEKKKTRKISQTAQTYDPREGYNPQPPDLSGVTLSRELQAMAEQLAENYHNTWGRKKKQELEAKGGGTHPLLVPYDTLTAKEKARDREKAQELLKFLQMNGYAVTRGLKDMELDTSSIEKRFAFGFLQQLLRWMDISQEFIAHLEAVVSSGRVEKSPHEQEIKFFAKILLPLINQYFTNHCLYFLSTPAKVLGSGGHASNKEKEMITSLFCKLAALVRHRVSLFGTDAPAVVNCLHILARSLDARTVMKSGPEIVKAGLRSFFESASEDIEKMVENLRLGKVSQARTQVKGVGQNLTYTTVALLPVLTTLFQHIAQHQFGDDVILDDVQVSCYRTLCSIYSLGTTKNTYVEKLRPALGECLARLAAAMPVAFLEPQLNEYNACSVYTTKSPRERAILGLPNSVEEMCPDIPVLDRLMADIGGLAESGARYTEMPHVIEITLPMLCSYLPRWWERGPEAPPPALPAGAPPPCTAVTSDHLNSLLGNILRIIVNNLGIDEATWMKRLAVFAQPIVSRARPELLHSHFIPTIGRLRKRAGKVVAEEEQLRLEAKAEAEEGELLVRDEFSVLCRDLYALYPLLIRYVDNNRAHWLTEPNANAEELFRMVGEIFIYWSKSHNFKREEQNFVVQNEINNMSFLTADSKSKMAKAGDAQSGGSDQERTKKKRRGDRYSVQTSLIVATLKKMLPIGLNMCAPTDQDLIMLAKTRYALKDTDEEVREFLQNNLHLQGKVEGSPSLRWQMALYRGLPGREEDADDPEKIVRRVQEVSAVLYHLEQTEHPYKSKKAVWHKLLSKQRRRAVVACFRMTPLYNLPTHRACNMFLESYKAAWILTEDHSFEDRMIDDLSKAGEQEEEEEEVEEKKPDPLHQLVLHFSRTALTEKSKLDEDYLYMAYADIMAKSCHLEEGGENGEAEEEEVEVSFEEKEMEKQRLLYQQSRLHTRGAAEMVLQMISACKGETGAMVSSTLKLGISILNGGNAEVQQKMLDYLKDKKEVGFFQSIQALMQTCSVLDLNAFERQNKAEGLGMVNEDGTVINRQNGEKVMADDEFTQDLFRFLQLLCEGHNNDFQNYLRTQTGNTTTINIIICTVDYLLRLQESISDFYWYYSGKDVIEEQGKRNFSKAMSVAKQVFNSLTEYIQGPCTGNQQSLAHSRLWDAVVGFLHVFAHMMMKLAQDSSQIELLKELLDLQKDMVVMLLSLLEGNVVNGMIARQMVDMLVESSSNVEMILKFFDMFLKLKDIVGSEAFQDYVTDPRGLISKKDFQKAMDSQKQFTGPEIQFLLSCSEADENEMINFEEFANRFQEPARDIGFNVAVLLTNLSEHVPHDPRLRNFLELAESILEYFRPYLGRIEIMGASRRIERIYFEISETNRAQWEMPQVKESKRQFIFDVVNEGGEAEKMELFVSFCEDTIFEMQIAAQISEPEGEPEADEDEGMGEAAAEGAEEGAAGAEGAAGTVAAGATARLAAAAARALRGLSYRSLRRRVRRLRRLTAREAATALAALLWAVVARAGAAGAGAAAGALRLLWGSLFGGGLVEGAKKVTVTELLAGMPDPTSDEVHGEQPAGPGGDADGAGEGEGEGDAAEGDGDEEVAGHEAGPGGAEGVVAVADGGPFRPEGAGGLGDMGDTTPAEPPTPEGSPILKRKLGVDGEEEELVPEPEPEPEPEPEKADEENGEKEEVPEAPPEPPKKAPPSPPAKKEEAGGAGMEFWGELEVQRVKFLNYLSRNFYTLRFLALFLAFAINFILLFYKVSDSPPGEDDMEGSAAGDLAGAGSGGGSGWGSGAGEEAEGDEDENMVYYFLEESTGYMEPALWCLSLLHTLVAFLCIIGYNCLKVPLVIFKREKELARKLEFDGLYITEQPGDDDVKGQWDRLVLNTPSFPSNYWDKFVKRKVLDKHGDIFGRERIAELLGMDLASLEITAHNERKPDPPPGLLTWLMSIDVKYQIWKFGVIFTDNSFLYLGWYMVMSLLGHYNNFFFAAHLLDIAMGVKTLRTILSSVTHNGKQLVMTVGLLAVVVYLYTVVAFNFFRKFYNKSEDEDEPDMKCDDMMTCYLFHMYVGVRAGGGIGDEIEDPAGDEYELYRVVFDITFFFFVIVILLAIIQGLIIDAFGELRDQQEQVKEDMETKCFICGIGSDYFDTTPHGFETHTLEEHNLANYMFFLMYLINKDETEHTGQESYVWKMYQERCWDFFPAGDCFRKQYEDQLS
# Procedure: as §2
# For the determination of [^3H]ryanodine binding, SR membranes were incubated for 20-60 min at 37° C. in a standard binding solution containing 1M NaCl, 20 mM MOPS (pH 7.4), 50 μM free Ca^2+ and 20 nM [^3H]ryanodine. Unbound ryanodine was separated from protein-bound ryanodine by vacuum filtration of the sample through nitrocellulose filters (0.45 μm), followed by two washes with 4 ml ice-cold buffer containing 0.2 M NaCl, 10 mM MOPS (pH 7.4) and 50 μM CaCl2. The retained radioactivity in the dried filters was determined by liquid scintillation counting. Specific binding of [^3H]ryanodine was defined as the difference between the binding in the presence of 20 nM [^3H]ryanodine and in the presence of 20 μM unlabeled ryanodine.
# as §4
# [7] = test system: Glutamate dehydrogenase; assay: Glutamate dehydrogenase activity; type: biochemical; conditions: AzRu 100 μM; mean ± SEM
# Description: as §1
# [8] = test system: Alkaline phosphatase; conditions: AzRu 100 μM; mean ± SEM
# Description: Aldolase, alkaline phosphatase, ATP, bovine liver catalase, choline oxidase, CM-cellulose, n-decane, glucose 6-phosphate dehydrogenase, glutamate dehydrogenase, glyceraldehyde 3-phosphate dehydrogenase, Hepes, yeast hexokinase, lactate dehydrogenase, leupeptin, luciferase, mannitol, horseradish peroxidase, PMSF, pyruvate kinase, soybean asolectin, sucrose, Tris and Triton X-100 were purchased from Sigma (St. Louis, Mo., USA). [^45Ca], [^103Ru] and [^3H]ryanodine were purchased from NEN® Life Science Products, Inc. (Boston, USA). Unlabelled ryanodine was obtained from Calbiochem. Sephadex LH-20 was purchased from Amersham Biosciences. n-Octyl-β-D-glucopyranoside (β-OG) was obtained from Bachem AG (Germany). Lauryl-(dimethyl)-amineoxide (LDAO) and ruthenium red (98% pure) were obtained from Fluka (Chemie, GmbH). Ruthenium chloride was purchased from Aldrich. Hydroxyapatite (Bio-Gel HTP) was purchased from Bio-Rad Laboratories (Hercules, Calif.) and Celite from Merck. Synthetic firefly D-luciferin reagent was purchased from Biosynth AG.
# [9] = target: T4, Luciferase (Photinus pyralis, UniProt P08659); assay: Luciferase activity; type: biochemical; conditions: mean ± SEM
# T4 construct: purchased Sigma
# Description: as §1
# [10] = test system: Lactate dehydrogenase; assay: Lactate dehydrogenase activity; type: biochemical; conditions: AzRu 100 μM; mean ± SEM
# Description: as §1
# [11] = target: T5, Catalase (Bos taurus, UniProt P00432); assay: Catalase activity; type: biochemical, bovine; conditions: AzRu 100 μM; mean ± SEM
# T5 construct: bovine liver catalase; purchased Sigma; host or cells: bovine liver
# Description: as §1
# [12] = target: T6, Choline oxidase (Arthrobacter globiformis, UniProt Q7X2H8); assay: Choline oxidase activity; type: biochemical; conditions: AzRu 100 μM; mean ± SEM
# T6 construct: purchased Sigma
# Description: as §1
# [13] = test system: Yeast hexokinase; assay: Yeast hexokinase activity; type: biochemical; conditions: mean ± SEM
# Description: as §1
# [14] = target: T7, VDAC (Rattus norvegicus, UniProt Q9Z2L0); assay: VDAC channel conductance in planar lipid bilayer; type: biochemical
# T7 construct: VDAC was purified by a method developed in our laboratory, using columns of hydroxyapatite and reactive red agarose; from tissue; host or cells: mitochondria
# Procedure: as §2
# Reconstitution of purified VDAC into planar lipid bilayer (PLB), single channel current recording, and data analysis were carried out as described in above mentioned publication.
# VDAC is a channel protein which transports Ca^2+ across the mitochondrial outer membrane. […] Purified VDAC was reconstituted into a planar lipid bilayer as multichannels. The channel activity was measured as the ions passed the current across the bilayer in response to a voltage gradient of 10 mV, as a function of time. In the absence of AzRu, VDAC is stable in a long-lived, fully opened state and remains open for up to 2 hours of recording. However, addition of AzRu to the same channel induced VDAC closure, in a time-dependent manner. Ca^2+, in the presence of 1 M NaCl, prevented the inhibitory effect of AzRu on VDAC activity.
# [15] = no UV, mean ± SEM of 3 to 5 experiments
substance,measurement,setting,value
azido-ruthenium [AzRu],"Activity (% of control), Peroxidase",[1],39 ± 4 % of control
same,"Activity (% of control), CaMKII-dependent GAPDH",[2],6 ± 2 % of control
same,"Activity (% of control), Succinate-cytochrome c oxido-reductase","[3]; AzRu 100 μM, mean ± SEM",95 ± 5 % of control
same,Effect on electron transfer from succinate to cytochrome c in mitochondria,"[3]; isolated mitochondria, FIG. 7",not affected
same,"Activity (% of control), Ca2+ uptake in mitochondria","[4]; AzRu 20 μM, mean ± SEM",11 ± 4 % of control
same,Effect on Ca2+ transport in mitochondria,"[4]; isolated mitochondria, FIG. 7",inhibited
same,IC50,[4]; [15],1.78 ± 0.12 µM
same,"Activity (% of control), Pyruvate kinase",[5]; AzRu 20 μM,97 ± 7 % of control
same,"Activity (% of control), Pyruvate kinase",[5]; AzRu 100 μM,81 ± 6 % of control
same,IC50,"[6]; +UV (photoactivation), mean ± SEM",1.21 ± 0.06 µM
same,"Activity (% of control), Ryanodine binding by SR RyR","[6]; AzRu 20 μM, mean ± SEM",18 ± 6 % of control
same,Effect on binding of ryanodine to SR membranes,[6]; FIG. 8,strongly inhibited
same,IC50,[6]; [15],2.9 ± 0.17 µM
same,"Activity (% of control), Glutamate dehydrogenase",[7],101 ± 5 % of control
same,"Activity (% of control), Alkaline phosphatase",[8],86 ± 5 % of control
same,"Activity (% of control), Luciferase",[9]; AzRu 20 μM,97 ± 1 % of control
same,"Activity (% of control), Luciferase",[9]; AzRu 100 μM,67 ± 3 % of control
same,"Activity (% of control), Lactate dehydrogenase",[10],91 ± 4 % of control
same,"Activity (% of control), Catalase",[11],118 ± 8 % of control
same,"Activity (% of control), Choline oxidase",[12],85 ± 3 % of control
same,"Activity (% of control), Yeast hexokinase",[13]; AzRu 20 μM,77 ± 5 % of control
same,"Activity (% of control), Yeast hexokinase",[13]; AzRu 100 μM,64 ± 4 % of control
same,"Activity (% of control), VDAC conductance","[14]; AzRu 20 μM, mean ± SEM",19 ± 5 % of control
same,Effect on VDAC conductance in multi-channel experiments,[14]; all voltages tested,decreased VDAC conductance
same,Effect on VDAC channel activity,"[14]; purified VDAC in planar lipid bilayer, voltage gradient 10 mV",inhibited the channel activity of VDAC

# Reference: patent US8034314B2, “Photoreactive compound specifically binding to calcium binding proteins” (priority 2004, dated 2011)
